Measurements taken from patent US20150343060A1, “TREATMENT OF CIRCULATING TUMOR CELLS USING AN EXTRACORPOREAL DEVICE” (priority 2014, published 2015).

Tested on: A431 cells
Test: Probe incubation, irradiation at 24 J/cm^2 and NucleoCounter NC-3000 cell vitality assay after about 24 hours
Type: cell-based, human
Conditions: for Cell Number / Cell Vitality: 24 J/cm^2, about 24 hours after irradiation, EGF probe 0.5 μM, panitumumab probe 0.1 μM
Description: A431 cells were plated and incubated with either probe for 5 minutes, 10 minutes or 20 minutes prior to washing and irradiation at 24 J/cm^2. […] After irradiation, the cells were cultured at 37° C., 5% CO2 for approximately 24 hours. The NucleoCounter® NC-3000™ cell vitality assay (Chemometec, Allerød, Denmark) was performed.

Substance: IRDye® 700DX-panitumumab
- Cell Number (5 minutes probe incubation): 675,000 cells/mL
- Cell Vitality (5 minutes probe incubation): 44.2%
- Cell Number (10 minutes probe incubation): 323,000 cells/mL
- Cell Vitality (10 minutes probe incubation): 34%
- Cell Number (20 minutes probe incubation): 550,000 cells/mL
- Cell Vitality (20 minutes probe incubation): 31%
- effect of longer incubation time on cell death (20 minutes vs. 5 minutes incubation, 24 J/cm^2): increased the number of cells undergoing cell death
- cell death averaged over the time periods (average over 5, 10 and 20 minutes incubation, 24 J/cm^2): about 60%
